Reference: publication PMC6449294, “SNAPshots of the MCHR1: a Comparison Between the PET-Tracers [^18F]FE@SNAP and [^11C]SNAP-7941” (Molecular Imaging and Biology, 2018)

Assays:
[1] = molecular target: T1, human serum albumin (HSA) (Homo sapiens, UniProt P02768); assay: Plasma protein binding using bioaffinity chromatography (CHIRALPAK HSA); assay type: in vitro ADME; conditions: bioaffinity chromatography on HSA stationary phase
T1 construct: purchased Daicel Chemical Industries CHIRALPAK HSA, column-batch H13L-2405
Method: The binding of (±)-SNAP-7941 and FE@SNAP to human serum albumin (HSA) was examined by bioaffinity chromatography according to a previously published manuscript. In short, the analytes were diluted in 2-propanol and ammonium acetate buffer (0.5 mg/ml) and injected on the CHIRALPAK®HSA stationary phase (50 × 3 mm, 5 μm pore size, column-batch: H13L-2405, Daicel Chemical Industries, West Chester, PA, USA). Prior the experiments, the column was calibrated with reference standards, and the resulting regression equation was used to convert the logarithmic capacity factors (log(k′)) to the percent of plasma protein binding (%PPB). The calibration curves, as well as the experiments, were performed by triplicate injections and at least three times.

[2] = molecular target: MCHR1; set-up: method as in PMID 28808288; conditions: previous experiments; read-out: Affinity to MCHR1 (Ki); cited from earlier work

T1 sequence (P02768 25-609): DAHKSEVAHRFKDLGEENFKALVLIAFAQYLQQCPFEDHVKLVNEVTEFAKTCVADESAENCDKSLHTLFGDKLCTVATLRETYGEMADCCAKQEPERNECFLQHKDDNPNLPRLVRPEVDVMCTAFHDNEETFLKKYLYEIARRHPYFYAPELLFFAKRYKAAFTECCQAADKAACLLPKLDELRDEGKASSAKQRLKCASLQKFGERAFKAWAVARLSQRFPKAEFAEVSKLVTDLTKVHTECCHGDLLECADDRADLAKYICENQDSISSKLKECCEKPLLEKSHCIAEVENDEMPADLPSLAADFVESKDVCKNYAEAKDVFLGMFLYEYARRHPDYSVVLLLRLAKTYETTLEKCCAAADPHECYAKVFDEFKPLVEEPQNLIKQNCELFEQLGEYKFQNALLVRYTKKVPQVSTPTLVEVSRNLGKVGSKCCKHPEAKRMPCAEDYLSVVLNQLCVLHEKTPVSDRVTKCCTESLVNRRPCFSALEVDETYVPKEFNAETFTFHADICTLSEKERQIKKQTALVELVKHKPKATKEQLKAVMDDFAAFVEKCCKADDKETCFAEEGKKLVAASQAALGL

Plasma protein binding (%PPB) / Binding to human serum albumin [1]	SMILES	Ki [2]
77 ± 0.2%	COCC1=C(C(=O)OCCF)C(c2ccc(F)c(F)c2)N(C(=O)NCCCN2CCC(c3cccc(NC(C)=O)c3)CC2)C(=O)N1 (racemic) [FE@SNAP, (±)-(2-fluoroethyl)-3-{[(3-{4-[3-(acetylamino)phenyl]-1-piperidinyl}propyl)amin]carbonyl}-4-(3,4-difluorophenyl)-6-(methoxymethyl)-2-oxo-1,2,3,4-tetra-hydro-5-pyrimidenecarboxylate]	9.98 ± 1.12 nM
80 ± 0.9%	COCC1=C(C(=O)OC)[C@H](c2ccc(F)c(F)c2)N(C(=O)NCCCN2CCC(c3cccc(NC(C)=O)c3)CC2)C(=O)N1 (racemic) [(±)-SNAP-7941, reference compound]	3.91 ± 0.74 nM
